This is an account of results in patent publication US8889677B2, “Substituted triazoles useful as mGlu5 receptor modulators” (Boehringer Ingellheim International GmbH, priority 2012, dated 2014).

The assay deals with T1, human recombinant mGluR5 (Homo sapiens, UniProt P41594).
T1 construct: expressed in transfected cells; host or cells: HEK 293 cell line cultured with tetracycline, hygromycin and geneticin; tetracycline removed 3-7 days before the assay
T1 sequence (P41594 21-1212): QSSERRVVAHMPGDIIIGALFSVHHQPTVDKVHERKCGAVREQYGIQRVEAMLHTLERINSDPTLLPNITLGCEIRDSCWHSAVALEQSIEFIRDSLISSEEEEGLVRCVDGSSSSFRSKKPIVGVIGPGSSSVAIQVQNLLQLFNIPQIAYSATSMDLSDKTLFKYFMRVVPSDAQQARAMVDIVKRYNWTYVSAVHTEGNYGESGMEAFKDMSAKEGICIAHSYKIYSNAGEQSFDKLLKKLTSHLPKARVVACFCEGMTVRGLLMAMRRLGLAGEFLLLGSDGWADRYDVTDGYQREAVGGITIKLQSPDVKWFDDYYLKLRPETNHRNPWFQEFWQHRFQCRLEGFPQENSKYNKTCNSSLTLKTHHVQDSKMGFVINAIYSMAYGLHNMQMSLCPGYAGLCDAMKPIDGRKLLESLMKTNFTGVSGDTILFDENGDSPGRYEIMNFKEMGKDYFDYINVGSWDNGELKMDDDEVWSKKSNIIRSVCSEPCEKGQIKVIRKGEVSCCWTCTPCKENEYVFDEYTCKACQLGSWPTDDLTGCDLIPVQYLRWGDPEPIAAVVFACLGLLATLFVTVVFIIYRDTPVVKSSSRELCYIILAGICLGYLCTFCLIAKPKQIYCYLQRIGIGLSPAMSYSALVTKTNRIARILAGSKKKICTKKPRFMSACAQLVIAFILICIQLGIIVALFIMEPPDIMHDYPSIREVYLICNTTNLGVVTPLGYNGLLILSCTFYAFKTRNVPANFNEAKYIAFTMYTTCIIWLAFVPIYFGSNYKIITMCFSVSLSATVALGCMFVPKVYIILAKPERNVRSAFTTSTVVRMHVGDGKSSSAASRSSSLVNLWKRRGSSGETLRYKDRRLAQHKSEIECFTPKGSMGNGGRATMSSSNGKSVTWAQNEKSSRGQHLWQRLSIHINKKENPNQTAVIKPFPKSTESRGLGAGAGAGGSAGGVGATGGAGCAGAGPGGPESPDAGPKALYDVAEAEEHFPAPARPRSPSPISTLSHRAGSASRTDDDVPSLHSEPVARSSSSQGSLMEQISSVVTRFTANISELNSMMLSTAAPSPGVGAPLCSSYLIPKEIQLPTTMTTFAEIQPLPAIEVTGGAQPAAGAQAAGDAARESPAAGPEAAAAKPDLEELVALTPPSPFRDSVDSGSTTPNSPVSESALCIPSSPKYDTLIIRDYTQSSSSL
Nature of the assay: positive modulation of mGluR5, calcium based FLIPR assay in HEK 293 cells. To be noted: HEK 293 cell line expressing human recombinant mGluR5; EC50 of the modulation of the glutamate response (glutamate approx. 5% basal stimulation); peak height of Ca release fluorescence signal. The protocol:
The positive modulation of mGluR5 is measured in a HEK 293 cell line expressing human recombinant mGluR5 and is detected with calcium based FLIPR assay. The cells are cultured with DMEM supplemented with 10% FCS, 2 μg/mL tetracycline, 100 μg/mL hygromycin and 500 μg/mL gneticin. The cell culture media is exchanged for tetracycline-free cell culture media 3-7 days before the assay. One day before the assay the cell culture medium is exchanged to DMEM without glutamine and phenol red and supplemented with 10% FCS, 100 μg/mL hygromycin and 500 μg/mL geneticin. On the assay day, the medium of the subconfluent cultures is removed and the cells are detached by addition of 2.5 ml EDTA (0.02%) per 175 cm2 culture flask for 1 minute. The cells are resuspend in Ringer solution (140 mM NaCl, 5 mM KCl, 2.5 mM CaCl2, 1.5 mM MgCl2, 5 mM Glucose, 10 mM Hepes; adjusted to pH 7.4 with NaOH), pooled and Ringer solution added to adjust the volume to 50 mL. The cell suspension is centrifuged for […] at 1500 U/min (425 g). The supernatant is removed and the cells washed a second time with 50 ml fresh Ringer solution and centrifuged again as before. The supernatant is again removed and the pellet resuspended in Ringer solution to 1,000,000 cells/ml (1×10^6 cells/mL). The cells are plated onto BD BioCoat Poly-D-Lysine 384 well plates (20.000 cells/well; 20 μl/well). The lid covered plates are then incubated until use at 37° C./10% CO2. For dye loading, 20 μl of Calcium-4 assay kit solution (prepared according to the manufacturer's description in Ringer solution) are added to the cells and the plates are incubated for 80 min 37° C. and then 10 min at room temperature.
Controls, Compound Dilution and Assay Execution:
Each assay plate contained wells with “high” and “low” controls:
Low controls 1% DMSO/ringer solution+basal glutamate activation (defined as 100% CTL).
High controls 10 μM CDPPB+basal glutamate activation (defined as 200% CTL).
Test compounds are dissolved and diluted in DMSO to 100-fold the desired concentrations. In a second step, the compounds are diluted in Ringer solution such that the compounds are 4-fold more concentrated than the desired final assay concentration. The final DMSO concentration was 1%.
20 μl of each compound solution are then transferred to the assay plate and the Ca2+ kinetic is measured to determine any intrinsic compound activity. After 5 min incubation in the FLIPR device, the second stimulation with 20 μl of glutamate in Ringer solution (glutamate concentration adjusted to approximately 5% basal stimulation of the maximal possible glutamate effect) is added and the kinetic Ca2+ response of the wells was measured for the modulation effect.
The peak height of the Ca release related fluorescence signal (9-66) is used for the EC50. The EC50 of the modulation is calculated over a nonlinear regression with GraphPad Prism (Table 1).
Take `O=C(Cn1nc(-c2ccc(F)cc2)nc1-c1ccc(F)cc1)N1CCN(c2cc(Cl)ccn2)CC1` [Example 07.04.015.]: the EC50 was determined as 364 nM. As for `CCCCCc1nc(-c2ccc(F)c(C)c2)nn1CC(=O)N1CCN(c2ncccn2)CC1` [Example 07.04.127.], the EC50 stood at 64 nM. In the case of `COc1ccc(-c2nc(-c3ccc(OC)cc3)n(CC(=O)N3CCN(c4ccc(C(N)=O)cn4)CC3)n2)cc1` [Example 07.02.17.] it was 644 nM; in that of `CCc1ccnc(N2CCN(C(=O)Cn3nc(-c4ccc(F)cc4)nc3-c3ccc(F)cc3)CC2)c1` [Example 07.05.02.], 43 nM; in that of `CCc1cc(N2CCN(C(=O)Cn3nc(-c4ccc(F)cc4)nc3-c3ccc(F)cc3)CC2)nc(Cl)n1` [Example 07.03.27.], 1210 nM. Then `COc1ccc(-c2nc(C3CCCCC3)n(CC(=O)N3CCN(c4cc(C)ccn4)CC3)n2)cc1` [Example 07.02.26.], with 252 nM; and `O=C(Cn1nc(-c2ccc(F)cc2)nc1-c1ccc(F)cc1)N1CCN(c2cc(OCCOCCO)ncn2)CC1` [Example 07.09.04.], with 64 nM. Turning to `COc1ccc(-c2nc(C3CCCCC3)n(CC(=O)N3CCN(c4ccccn4)CC3)n2)c(F)c1` [Example 07.04.022.], the EC50 turned out to be 1040 nM. Then `CCc1cccc(-c2nc(-c3ccccc3)n(CC(=O)N3CCN(c4ncccn4)CC3)n2)c1` [Example 07.10.03.], with 15 nM.

Consider `COc1ccc(-c2nc(-c3ccc(OC)cc3)n(CC(=O)N3CCN(c4ncccc4C#N)CC3)n2)cc1` [Example 07.02.16.], for which the EC50 came to 266 nM. In the case of `COc1cc(OC)cc(-c2nc(-c3ccccc3)n(CC(=O)N3CCN(c4ncccn4)CC3)n2)c1` [Example 07.10.09.] it was 553 nM; in that of `Cc1ccnc(N2CCN(C(=O)Cn3nc(-c4cccc(F)c4)nc3-c3cccc(F)c3)CC2)c1` [Example 07.04.024.], 945 nM. Then `COc1ccc(-c2nc(C3CCCCC3)n(CC(=O)N3CCN(c4ncccn4)CC3)n2)cc1` [Example 07.02.24.], with 229 nM; and `COC[C@H](C)Oc1cc(N2CCN(C(=O)Cn3nc(-c4ccc(F)cc4)nc3-c3ccc(F)cc3)CC2)ncn1` [Example 07.09.30.], with 75 nM. Then `COCCOCCOc1cc(N2CCN(C(=O)Cn3nc(-c4ccc(F)cc4)nc3-c3ccc(F)cc3)CC2)ncn1` [Example 07.09.06.], with 130 nM; and `O=C(Cn1nc(-c2ccc(F)cc2)nc1-c1ccc(F)cc1)N1CCN(c2cc(NC3CCOCC3)ncn2)CC1` [Example 07.08.05.], with 510 nM; and `COc1cc(N2CCN(C(=O)Cn3nc(-c4cc(F)c(F)c(F)c4)nc3-c3ccccc3)CC2)ncn1` [Example 07.10.39.], with 389 nM.

On to `Cc1ccnc(N2CCN(C(=O)Cn3nc(-c4ccc(F)c(C)c4)nc3C3CCCCC3C)CC2)c1` (centres unmarked) [Example 07.04.134.], for which the EC50 is 1030 nM. Turning to `Cc1cc(-c2nc(-c3ccccc3)n(CC(=O)N3CCN(c4ncc(Cl)cn4)CC3)n2)ccc1F` [Example 07.04.058.], the EC50 was 25 nM. Regarding `COc1ccc(-c2nc(C3CCCCC3)n(CC(=O)N3CCN(c4ncccn4)CC3)n2)c(F)c1` [Example 07.04.020.], the EC50 amounted to 388 nM. For the compound `CCOc1cc(N2CCN(C(=O)Cn3nc(-c4ccc(F)cc4)nc3-c3ccc(F)cc3)CC2)ncn1` [Example 07.06.02.], the EC50 came out at 70 nM. Then `O=C(Cn1nc(-c2ccc(F)cc2)nc1-c1ccc(F)cc1)N1CCN(c2cc(OCC3CCCCO3)ncn2)CC1` (centres unmarked) [Example 07.09.10.], with 52 nM; and `Cc1cc(-c2nc(C3CCC(C)CC3)n(CC(=O)N3CCN(c4ncccn4)CC3)n2)ccc1F` (centres unmarked) [Example 07.04.128.], with 485 nM. In the case of `COc1cccc(-c2nc(-c3ccc(F)cc3)nn2CC(=O)N2CCN(c3ccccn3)CC2)c1` [Example 07.04.050.] it was 459 nM. Then `COc1ccc(-c2nc(-c3ccc(OC)cc3)n(CC(=O)N3CCN(c4ncccn4)CC3)n2)cc1` [Example 07.02.09.], with 61 nM; and `O=C(Cn1nc(-c2ccc(F)cc2)nc1-c1ccc(F)cc1)N1CCN(c2ccccc2O)CC1` [Example 07.04.010.], with 1200 nM; and `COc1cc(N2CCN(C(=O)Cn3nc(-c4ccc(F)c(C)c4)nc3C3CCCCC3C)CC2)ncn1` (centres unmarked) [Example 07.04.137.], with 1050 nM. With `COc1ccc(-c2nc(-c3ccc(F)cc3)n(CC(=O)N3CCN(c4cccnn4)CC3)n2)cc1` [Example 07.04.037.], the EC50 was determined as 114 nM.

For the compound `COc1cccc(-c2nc(C3CCCCC3)n(CC(=O)N3CCN(c4ncccn4)CC3)n2)c1` [Example 07.04.051.], the EC50 was determined as 997 nM. Then `CCCCCc1nc(-c2ccc(F)c(C)c2)nn1CC(=O)N1CCN(c2cc(OC)ncn2)CC1` [Example 07.04.126.], with 110 nM.

On to `O=C(Cn1nc(-c2ccc(F)cc2)nc1-c1ccc(F)cc1)N1CCN(c2cccnc2)CC1` [Example 07.04.004.], for which the EC50 came out at 600 nM.

Regarding `COc1ccc(Cl)cc1N1CCN(C(=O)Cn2nc(-c3ccc(F)cc3)nc2-c2ccc(F)cc2)CC1` [Example 07.04.002.], the EC50 was determined as 2000 nM. Then `COc1ccc(-c2nc(-c3ccc(F)cc3)nn2CC(=O)N2CCN(c3ncccn3)CC2)cc1` [Example 07.04.040.], with 33 nM; and `COc1ccc(-c2nc(-c3ccc(F)cc3)n(CC(=O)N3CCN(c4ncccn4)CC3)n2)cc1` [Example 07.04.033.], with 37 nM; and `O=C(Cn1nc(-c2ccc(F)cc2)nc1-c1ccc(F)cc1)N1CCN(c2cc(OCCO)ncn2)CC1` [Example 07.07.01., 2-(3,5-bis-(4-fluoro-phenyl)-(1,2,4)triazol-1-yl)-1-(4-(6-(2-hydroxy-ethoxy)-pyrimidin-4-yl)-piperazin-1-yl)-ethanone], with 165 nM. As to `COc1cc(N2CCN(C(=O)Cn3nc(-c4ccc(F)cc4)nc3-c3ccc(F)cc3)CC2)ncn1` [Example 07.04.016.], the EC50 came to 62 nM. In the case of `Cc1cc(-c2nc(C)n(CC(=O)N3CCN(c4ccccn4)CC3)n2)ccc1F` [Example 07.04.095.] it was 1660 nM; in that of `O=C(Cn1nc(-c2ccc(F)cc2)nc1C1CCCCC1)N1CCN(c2ccccn2)CC1` [Example 07.04.029.], 1560 nM; in that of `Cc1ccnc(N2CCN(C(=O)Cn3nc(-c4ccccc4)nc3-c3ccc(F)c(C)c3)CC2)c1` [Example 07.04.075.], 657 nM.

Take `O=C(Cn1nc(-c2ccc(F)cc2)nc1-c1ccc(F)cc1)N1CCN(c2cc(OCCN3CCOCC3)ncn2)CC1` [Example 07.09.07.]: the EC50 is 110 nM. In the case of `CCOc1ccnc(N2CCN(C(=O)Cn3nc(-c4ccc(OC)cc4)nc3-c3ccccc3)CC2)c1` [Example 07.04.055.] it was 101 nM; in that of `N#Cc1cccc(N2CCN(C(=O)Cn3nc(-c4ccc(F)cc4)nc3-c3ccc(F)cc3)CC2)c1` [Example 07.03.06.], 350 nM.

On to `O=C(Cn1nc(-c2ccc(F)cc2)nc1-c1ccc(F)cc1)N1CCN(c2cccc(F)c2)CC1` [Example 07.03.05.], for which the EC50 worked out at 469 nM.

`Cc1ccnc(N2CCN(C(=O)Cn3nc(-c4ccc(F)c(C)c4)nc3C)CC2)c1` [Example 07.04.098.]: the EC50 was determined as 738 nM. In the case of `COc1cc(N2CCN(C(=O)Cn3nc(-c4cc(C)cc(C)c4)nc3-c3ccccc3)CC2)ncn1` [Example 07.10.36.], the EC50 was 121 nM.

Regarding `O=C(Cn1nc(-c2ccc(F)cc2)nc1-c1ccc(F)cc1)N1CCN(c2nccc(C(F)(F)F)n2)CC1` [Example 07.03.21.], the EC50 came out at 278 nM.

`N#CCc1ccc(-c2nc(-c3ccccc3)nn2CC(=O)N2CCN(c3ncccn3)CC2)cc1` [Example 07.10.21.]: the EC50 was found to be 1500 nM. Then `COc1ccc(-c2nc(-c3ccccc3)n(CC(=O)N3CCN(c4ccc(C)cn4)CC3)n2)cc1OC` [Example 07.02.21.], with 451 nM; and `CC(C)Oc1ccc(-c2nc(-c3ccccc3)n(CC(=O)N3CCN(c4ncccn4)CC3)n2)cc1` [Example 07.10.18.], with 1050 nM; and `O=C(Cn1nc(-c2ccc(F)cc2)nc1C1CCCC1)N1CCN(c2ccccn2)CC1` [Example 07.04.047.], with 1380 nM.
